Biological target: Transient receptor potential cation channel subfamily V member 1 (Rattus norvegicus, UniProt O35433)
Sequence (O35433 whole entry): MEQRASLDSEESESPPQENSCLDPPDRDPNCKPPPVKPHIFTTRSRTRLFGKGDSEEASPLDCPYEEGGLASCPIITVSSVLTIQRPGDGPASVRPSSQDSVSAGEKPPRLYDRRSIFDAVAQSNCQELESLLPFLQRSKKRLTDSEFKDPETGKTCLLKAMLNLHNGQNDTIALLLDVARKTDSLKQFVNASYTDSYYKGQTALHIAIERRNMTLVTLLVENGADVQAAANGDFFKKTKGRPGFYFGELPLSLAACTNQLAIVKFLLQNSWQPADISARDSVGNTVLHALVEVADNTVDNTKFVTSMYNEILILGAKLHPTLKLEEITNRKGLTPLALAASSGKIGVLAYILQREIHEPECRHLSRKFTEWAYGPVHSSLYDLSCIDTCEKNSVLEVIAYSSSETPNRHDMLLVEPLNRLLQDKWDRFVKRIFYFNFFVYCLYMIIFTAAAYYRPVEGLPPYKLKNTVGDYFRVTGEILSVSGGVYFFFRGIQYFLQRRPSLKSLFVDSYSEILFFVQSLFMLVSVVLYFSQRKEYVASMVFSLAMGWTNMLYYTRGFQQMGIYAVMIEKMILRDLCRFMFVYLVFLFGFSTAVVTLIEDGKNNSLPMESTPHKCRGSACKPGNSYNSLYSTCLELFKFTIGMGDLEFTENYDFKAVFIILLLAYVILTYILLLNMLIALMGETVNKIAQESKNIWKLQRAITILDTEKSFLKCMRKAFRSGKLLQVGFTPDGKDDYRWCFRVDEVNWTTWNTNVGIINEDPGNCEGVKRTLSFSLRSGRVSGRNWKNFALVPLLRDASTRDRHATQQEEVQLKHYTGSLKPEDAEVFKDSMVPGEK

- Ki: 9.2 nM
Structure (SMILES): CC(C)(C)c1ccc(CNC(=S)NCc2ccc(NS(C)(=O)=O)c(F)c2)cc1 [JYL1421]

Reference: BindingDB's records for doi:10.1124/mol.62.4.947 (National Cancer Institute-Bethesda, 2002)
